Data on eight compounds can be found in PubChem BioAssay (NCI).

Where “and” joins values, the source holds several entries; their conditions need not be identical. Equal values may be shown once.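 Briefly, cells in 96-well plates were exposed to five compound concentrations for 48 h, and endpoints were estimated by linear interpolation. At the GI50, growth is halved. TGI denotes the concentration required for complete inhibition of growth.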 Bounds are passed on as bounds.

Test systems include KM12 colon; HOP-92 NSCLC; IGROV1 ovarian; NCI-H522 lung; SN12C renal; OVCAR-5 ovarian; HCT-15 colon; SK-MEL-2 melanoma; UO-31 renal; SNB-75 CNS.
Common to all, as to assay: DTP human tumour cell line panel, 48 h

Regarding `CN(CCCCCCCCNc1ccnc2ccccc12)Cc1ccc(-c2ccc(-c3ccc(C#N)cc3)s2)cc1`, the GI50 in the assay on KM12 colon was 0.667 µM; in the assay on HOP-92 NSCLC, 0.337 µM; with IGROV1 ovarian, 1.4 µM; in the assay on NCI-H522 lung, 1.35 µM; in the assay on SN12C renal, 1.37 µM; with OVCAR-5 ovarian, 1.39 µM. Further, the GI50 in the assay on HCT-15 colon is 0.266 µM; with SK-MEL-2 melanoma it was 1.85 µM; with UO-31 renal it was 1.23 µM; in the assay with SNB-75 CNS, 1.35 µM. Moreover, the TGI in the assay with KM12 colon came out at 2.17 µM; with HOP-92 NSCLC, 2.53 µM; with IGROV1 ovarian, 3.02 µM; in the assay with NCI-H522 lung, 3.36 µM; with SN12C renal, 3 µM; with OVCAR-5 ovarian it was 2.73 µM. Besides, the TGI in the assay with HCT-15 colon was 1.37 µM; in the assay with SK-MEL-2 melanoma, 3.83 µM; in the assay on UO-31 renal, 2.57 µM; in the assay with SNB-75 CNS it was 2.68 µM.
Regarding `Oc1ccccc1/C=N\Nc1ccccc1`, the GI50 in the assay on KM12 colon was 2.25 µM; with HOP-92 NSCLC, 10.7 µM; in the assay on IGROV1 ovarian it was 21.7 µM; in the assay on NCI-H522 lung, 1.73 µM; in the assay on SN12C renal, 3.41 µM; in the assay with OVCAR-5 ovarian, 8.75 µM. Further, the GI50 with HCT-15 colon is 4.16 µM; in the assay on SK-MEL-2 melanoma it was 13.2 µM; in the assay on UO-31 renal, 2.35 µM; in the assay with SNB-75 CNS it was 21.2 µM. Besides, the TGI in the assay on KM12 colon was over 100 µM; in the assay with HOP-92 NSCLC, 42.8 µM; with IGROV1 ovarian, over 100 µM; with NCI-H522 lung, 82.9 µM; with SN12C renal it was over 100 µM; in the assay on OVCAR-5 ovarian, 39.2 µM. Besides, the TGI with HCT-15 colon is 26.4 µM; in the assay with SK-MEL-2 melanoma, over 100 µM; in the assay on UO-31 renal, 36.3 µM; in the assay on SNB-75 CNS, over 100 µM.
For `COc1ccc(C2CC(c3ccc4ccccc4c3)=NN2c2nc(O)c(C3=c4cc(Cl)ccc4=NC3=O)s2)cc1` (centres undefined), the GI50 is 0.0236 µM and < 0.005 µM in the assay with KM12 colon; 0.0168 µM and < 0.005 µM in the assay on HOP-92 NSCLC; 0.0254 µM in the assay with IGROV1 ovarian; 0.0183 µM and < 0.005 µM in the assay with NCI-H522 lung; 0.0264 µM and < 0.005 µM in the assay on SN12C renal; 0.0263 µM and < 0.005 µM in the assay on OVCAR-5 ovarian. The GI50 in the assay on HCT-15 colon is 0.0342 µM; in the assay with SK-MEL-2 melanoma, 0.0263 µM and < 0.005 µM; with UO-31 renal, 0.0193 µM and < 0.005 µM; in the assay with SNB-75 CNS it was 0.0171 µM. The TGI is 0.0736 µM with IGROV1 ovarian; 0.0402 µM and < 0.005 µM in the assay with NCI-H522 lung; 0.229 µM in the assay on HCT-15 colon; 0.0436 µM and < 0.005 µM in the assay with UO-31 renal; 0.0408 µM with SNB-75 CNS.
`O=C1c2c(c3c4ccccc4n(CCCCCCN4CCOCC4)c3c3[nH]c4ccccc4c23)C(=O)N1O`: the GI50 with KM12 colon was 7.01 µM; in the assay on HOP-92 NSCLC, 13.2 µM; in the assay with IGROV1 ovarian, 3.76 µM; in the assay on NCI-H522 lung it was 1.58 µM; in the assay with SN12C renal, 6.86 µM; in the assay on OVCAR-5 ovarian, over 49.3 µM. Also, the GI50 with HCT-15 colon is 3.03 µM; in the assay on SK-MEL-2 melanoma it was 19.5 µM; with UO-31 renal, 1.25 µM; in the assay on SNB-75 CNS, 1.36 µM. In addition, the TGI with KM12 colon was 57.7 µM; in the assay on HOP-92 NSCLC, 38.3 µM; in the assay on IGROV1 ovarian, 49.3 µM; in the assay with NCI-H522 lung, 4.15 µM; with SN12C renal, 26.4 µM; with OVCAR-5 ovarian it was over 75.8 µM. Further, the TGI in the assay on HCT-15 colon came out at 12.2 µM; with SK-MEL-2 melanoma, 46 µM; in the assay with UO-31 renal, 3.11 µM; in the assay with SNB-75 CNS it was 7.57 µM.
`CC1(C)C=C(N2CCN(C3=CC(C)(C)NC(C)(C)C3)CC2)CC(C)(C)N1`: the TGI with KM12 colon, with HOP-92 NSCLC, with IGROV1 ovarian, in the assay with NCI-H522 lung, in the assay on SN12C renal and with OVCAR-5 ovarian was over 100 µM each time. For the same compound, the TGI in the assay on HCT-15 colon, with UO-31 renal and in the assay with SNB-75 CNS was over 100 µM in each case.
As to `CCCCNP1(NCCCC)=NP(NCCCC)(NCCCC)=NP(NCCCC)(NCCCC)=NP(NCCCC)(NCCCC)=N1`, the GI50 with KM12 colon was 0.355 µM; with HOP-92 NSCLC, 0.0514 µM; in the assay with IGROV1 ovarian, 0.584 µM; in the assay on NCI-H522 lung, 0.287 µM; in the assay with SN12C renal, 0.331 µM; in the assay with OVCAR-5 ovarian, 1.61 µM. Further, the GI50 in the assay on HCT-15 colon was 21.2 µM; with SK-MEL-2 melanoma, 0.922 µM; in the assay on UO-31 renal it was 2.81 µM; in the assay on SNB-75 CNS, 3.13 µM. The TGI in the assay with KM12 colon is 4.27 µM; with HOP-92 NSCLC it was 0.917 µM; with IGROV1 ovarian, 11.6 µM; with NCI-H522 lung it was 4.3 µM; in the assay on SN12C renal it was 12.5 µM; in the assay on OVCAR-5 ovarian it was 9.81 µM. For the same compound, the TGI was found to be 99.5 µM in the assay on HCT-15 colon, 3.51 µM with SK-MEL-2 melanoma, 14.4 µM in the assay on UO-31 renal and 15.8 µM with SNB-75 CNS.
For `CC(O)(c1ccc(OCCC[N+](C)(C)C)cc1)C(C)(O)c1ccc(OCCC[N+](C)(C)C)cc1` (centres undefined), the TGI in the assay with KM12 colon, with HOP-92 NSCLC, in the assay on IGROV1 ovarian, with NCI-H522 lung, in the assay with SN12C renal and with OVCAR-5 ovarian was over 100 µM in each case. Further, the TGI with HCT-15 colon, with SK-MEL-2 melanoma, with UO-31 renal and with SNB-75 CNS was over 100 µM throughout.
Turning to `CSC(=NC(=O)c1ccccc1)SCCSC(=NC(=O)c1ccccc1)SC`, the TGI is over 100 µM in the assay on KM12 colon; 83.4 µM in the assay with HOP-92 NSCLC; over 100 µM in the assay with IGROV1 ovarian; over 100 µM with NCI-H522 lung; over 100 µM in the assay on SN12C renal; over 100 µM in the assay with OVCAR-5 ovarian. For the same compound, the TGI with HCT-15 colon, in the assay on SK-MEL-2 melanoma, with UO-31 renal and in the assay on SNB-75 CNS was over 100 µM in each case.

In general, GI50 refers to the concentration that inhibits growth by half. Usually TGI stands for the concentration at which net growth stops.
